Data taken from PubChem BioAssay AID300 (DTP/NCI, 2004).
Values joined by “and” are separate entries in the source; they are usually repeats but may differ in a detail not shown here. Equal entries are not always repeated. Results filed as inconclusive are left out. How the source made its calls: active means survival T/C of 150% or more; inactive means T/C below 125% in these data. *1 amine or outer side, *2 acyl side, *3 side chain or, on linkers, in order; H or OH if unused. Where a SMILES comes first, the peptide text is derived from it. Bridges are numbered along the chain shown (N, C = ends). Roman numbers before positions name the chains, in order. [ ]: non-standard residue; d: D form. Actinocin(9to1) = Cc1c2oc3c(C)ccc(C(=O)[*:1])c3nc-2c(C(=O)[*:2])c(N)c1=O; NMeV = CN[CH](C(=O)O)C(C)C; Sar = CNCC(=O)O

Tested on: Madison 109 lung carcinoma i.m., mice, median survival
Experiment: NCI In Vivo Anticancer Drug Screen. Data for tumor model Madison 109 Lung Carcinoma (intramuscular) in unknown mice
Conditions: endpoint: median survival time, higher = longer survival
Experimental: The antitumor activity of compounds was measured in mice bearing transplantable tumors. Survival or tumor size were measured and the results are expressed as the measurement made in the treated group (T) divided by the measurement made in the vehicle treated control group (C). The tumor model used in this assay is Madison 109 Lung Carcinoma (intramuscular) in unknown mice

[1] = dose: 10.0 mg/kg/injection, schedule: Q01DX009 (ip), vehicle: water
[2] = dose: 20.0 mg/kg/injection, schedule: Q01DX009 (ip), vehicle: water
[3] = dose: 3.0 mg/kg/injection, schedule: Q01DX009 (ip), vehicle: water
[4] = dose: 6.0 mg/kg/injection, schedule: Q01DX009 (ip), vehicle: water
[5] = dose: 50.0 mg/kg/injection, schedule: Q01DX009 (ip), vehicle: other
[6] = dose: 40.0 mg/kg/injection, schedule: Q01DX009 (ip), vehicle: water
[7] = dose: 80.0 mg/kg/injection, schedule: Q01DX009 (ip), vehicle: water

Measured: T/C

CO[C@@]12[C@H](COC(N)=O)C3=C(C(=O)C(C)=C(N)C3=O)N1C[C@@H]1N[C@@H]12
inactive: dose: 0.1 mg/kg/injection, schedule: Q01DX009 (ip), vehicle: saline 106 % of control | dose: 0.2 mg/kg/injection, schedule: Q01DX009 (ip), vehicle: saline 96 % of control | dose: 0.4 mg/kg/injection, schedule: Q01DX009 (ip), vehicle: saline 108 % of control | dose: 0.8 mg/kg/injection, schedule: Q01DX009 (ip), vehicle: saline 109 % of control

C[C@@H]1C[C@@H]([C@H](O)CC2CC(=O)NC(=O)C2)C(=O)[C@@H](C)C1
inactive: [1] 94 % of control | [2] 100 % of control

c1ccc([C@H]2CN3CCSC3=N2)cc1
inactive: dose: 0.75 mg/kg/injection, schedule: Q01DX009 (ip), vehicle: water 114 % of control | dose: 1.5 mg/kg/injection, schedule: Q01DX009 (ip), vehicle: water 122 % of control | [3] 97 % of control | [4] 108 % of control

CO[C@H]1/C=C/O[C@@]2(C)Oc3c(C)c(O)c4c(O)c(c(/C=N/N5C(C)CN(Cc6ccccc6)CC5C)c(O)c4c3C2=O)NC(=O)/C(C)=C\C=C\[C@H](C)[C@H](O)[C@@H](C)[C@@H](O)[C@@H](C)[C@H](OC(C)=O)[C@@H]1C (stereo not given in full)
inactive: dose: 16.0 mg/kg/injection, schedule: Q03HX008 (ip), vehicle: saline 114 % of control | dose: 16.0 mg/kg/injection, schedule: Q03HX024 (ip), vehicle: saline 101 % of control | dose: 32.0 mg/kg/injection, schedule: Q03HX008 (ip), vehicle: saline 116 % of control | dose: 64.0 mg/kg/injection, schedule: Q01DX009 (ip), vehicle: saline 108 % of control | dose: 64.0 mg/kg/injection, schedule: Q03HX008 (ip), vehicle: saline 109 % of control | dose: 64.0 mg/kg/injection, schedule: Q04DX003 (ip), vehicle: saline 103 % of control | dose: 128.0 mg/kg/injection, schedule: Q01DX001 (ip), vehicle: saline 105 % of control | dose: 128.0 mg/kg/injection, schedule: Q04DX003 (ip), vehicle: saline 106 % of control | dose: 256.0 mg/kg/injection, schedule: Q01DX001 (ip), vehicle: saline 95 % of control

NC(=O)c1cn[nH]c1N
inactive: [5] 97 % of control | dose: 100.0 mg/kg/injection, schedule: Q01DX009 (ip), vehicle: other 94 % of control | dose: 200.0 mg/kg/injection, schedule: Q01DX009 (ip), vehicle: other 92 % of control | dose: 400.0 mg/kg/injection, schedule: Q01DX009 (ip), vehicle: other 102 % of control

Cc1c2oc3c(C)ccc(C(=O)NC4C(=O)NC(C(C)C)C(=O)N5CCCC5C(=O)N(C)CC(=O)N(C)C(C(C)C)C(=O)OC4C)c3nc-2c(C(=O)NC2C(=O)NC(C(C)C)C(=O)N3CCCC3C(=O)N(C)CC(=O)N(C)C(C(C)C)C(=O)OC2C)c(N)c1=O (stereo not given) (I: TVP[Sar][NMeV] / II: TVP[Sar][NMeV]; ester I:1-I:C, II:1-II:C; linker I:N-II:N via Actinocin(9to1); configuration not given here)
inactive: dose: 0.64 mg/kg/injection, schedule: Q01DX009 (ip), vehicle: water 118 % of control | dose: 0.84 mg/kg/injection, schedule: Q01DX009 (ip), vehicle: water 124 % of control

COC1=C(N)C(=O)c2nc(-c3nc(C(=O)O)c(C)c(-c4ccc(OC)c(OC)c4O)c3N)ccc2C1=O
inactive: dose: 2.0 micrograms/kg/injection, schedule: Q01DX009 (ip), vehicle: other 102 % of control | dose: 5.0 micrograms/kg/injection, schedule: Q01DX009 (ip), vehicle: other 103 % of control and 111 % of control | dose: 10.0 micrograms/kg/injection, schedule: Q01DX009 (ip), vehicle: other 106 % of control and 116 % of control | dose: 20.0 micrograms/kg/injection, schedule: Q01DX009 (ip), vehicle: other 115 % of control and 117 % of control | dose: 30.0 micrograms/kg/injection, schedule: Q01DX009 (ip), vehicle: other 109 % of control

O=c1[nH]cc(F)c(=O)[nH]1
inactive: dose: 5.0 mg/kg/injection, schedule: Q01DX009 (ip), vehicle: saline 94 % of control | dose: 10.0 mg/kg/injection, schedule: Q01DX009 (ip), vehicle: saline 88 % of control | dose: 15.0 mg/kg/injection, schedule: Q01DX009 (ip), vehicle: saline 123 % of control | dose: 20.0 mg/kg/injection, schedule: Q01DX009 (ip), vehicle: saline 113 % of control

COc1ccc(C[C@H](N)C(=O)NC2C(CO)OC(n3cnc4c(N(C)C)ncnc43)C2O)cc1 (stereo not given in full)
inactive: [1] 104 % of control | [2] 105 % of control | [6] 104 % of control | [7] 105 % of control

O=[N+]([O-])c1ccc(Cl)cc1[N+](=O)[O-]
inactive: dose: 10.0 mg/kg/injection, schedule: Q02DX009 (ip), vehicle: water 121 % of control | dose: 20.0 mg/kg/injection, schedule: Q02DX009 (ip), vehicle: water 118 % of control | dose: 80.0 mg/kg/injection, schedule: Q02DX009 (ip), vehicle: water 119 % of control

CN(Cc1cnc2nc(N)nc(N)c2n1)c1ccc(C(=O)N[C@@H](CCC(=O)O)C(=O)O)cc1
inactive: dose: 0.07 mg/kg/injection, schedule: Q01DX009 (ip), vehicle: sodium bicarbonate 99 % of control | dose: 0.15 mg/kg/injection, schedule: Q01DX009 (ip), vehicle: sodium bicarbonate 123 % of control | dose: 0.3 mg/kg/injection, schedule: Q01DX009 (ip), vehicle: sodium bicarbonate 108 % of control | dose: 0.6 mg/kg/injection, schedule: Q01DX009 (ip), vehicle: sodium bicarbonate 111 % of control

CC1=C(/C=C/C(C)=C/C=C/C(C)=C/C(=O)O)C(C)(C)CCC1
inactive: dose: 25.0 mg/kg/injection, schedule: Q01DX009 (ip), vehicle: other 94 % of control | [5] 95 % of control

OC(CBr)C(O)C(O)C(O)CBr (stereo not given)
inactive: dose: 25.0 mg/kg/injection, schedule: Q01DX009 (ip), vehicle: Klucel (hydroxypropylcellulose) (HPC) 94 % of control | dose: 50.0 mg/kg/injection, schedule: Q01DX009 (ip), vehicle: Klucel (hydroxypropylcellulose) (HPC) 123 % of control | dose: 100.0 mg/kg/injection, schedule: Q01DX009 (ip), vehicle: Klucel (hydroxypropylcellulose) (HPC) 117 % of control

COc1cccc2c1C(=O)c1c(O)c3c(c(O)c1C2=O)CC(O)(C(C)=O)CC3OC1CC(N)C(O)C(C)O1 (stereo not given)
inactive: dose: 5.5 mg/kg/injection, schedule: Q01DX005 (ip), vehicle: water 123 % of control | dose: 8.0 mg/kg/injection, schedule: Q01DX005 (ip), vehicle: water 123 % of control | dose: 16.5 mg/kg/injection, schedule: Q01DX005 (ip), vehicle: water 119 % of control and 120 % of control | dose: 24.0 mg/kg/injection, schedule: Q01DX005 (ip), vehicle: water 73 % of control | dose: 27.5 mg/kg/injection, schedule: Q01DX005 (ip), vehicle: water 52 % of control | dose: 31.5 mg/kg/injection, schedule: Q01DX005 (ip), vehicle: water 123 % of control | dose: 40.0 mg/kg/injection, schedule: Q01DX005 (ip), vehicle: water 114 % of control | dose: 52.5 mg/kg/injection, schedule: Q01DX005 (ip), vehicle: water 114 % of control

O=[N+]([O-])c1ccc(Cl)c([N+](=O)[O-])c1
inactive: [1] 119 % of control | dose: 40.0 mg/kg/injection, schedule: Q01DX001 (ip), vehicle: water 116 % of control | [6] 119 % of control | dose: 80.0 mg/kg/injection, schedule: Q01DX001 (ip), vehicle: water 100 % of control | [7] 109 % of control | dose: 160.0 mg/kg/injection, schedule: Q01DX001 (ip), vehicle: water 109 % of control | dose: 160.0 mg/kg/injection, schedule: Q01DX009 (ip), vehicle: water 116 % of control | dose: 320.0 mg/kg/injection, schedule: Q01DX001 (ip), vehicle: water 119 % of control | dose: 640.0 mg/kg/injection, schedule: Q01DX001 (ip), vehicle: water 90 % of control

Cc1c2ccncc2c(C)c2c1[nH]c1ccccc12
inactive: dose: 2.0 mg/kg/injection, schedule: Q01DX009 (ip), vehicle: other 119 % of control | dose: 4.0 mg/kg/injection, schedule: Q01DX009 (ip), vehicle: other 121 % of control | dose: 8.0 mg/kg/injection, schedule: Q01DX009 (ip), vehicle: other 111 % of control | dose: 16.0 mg/kg/injection, schedule: Q01DX009 (ip), vehicle: other 111 % of control

CC[C@H]1CN2CCc3cc(OC)c(OC)cc3[C@@H]2C[C@@H]1C[C@H]1NCCc2cc(OC)c(OC)cc21
inactive: dose: 2.0 mg/kg/injection, schedule: Q01DX009 (ip), vehicle: water 115 % of control | [3] 115 % of control | dose: 4.0 mg/kg/injection, schedule: Q01DX009 (ip), vehicle: water 112 % of control | [4] 115 % of control
